Paper PMC9822133, “Design, Synthesis and Antiproliferative Evaluation of Bis-Indole Derivatives with a Phenyl Linker: Focus on Autophagy” (Molecules, 2022)

Key:
[1] = system: BLM; test: MTT screening assay, BLM; assay type: cell-based; conditions: Homo sapiens, 72 h incubation
[2] = system: Cos-7; test: MTT screening assay, Cos-7 non-cancer cells; assay type: cell-based, monkey; conditions: Primates, 72 h incubation
Text: The ability of newly synthesized indole phytoalexins to suppress cell proliferation was screened in vitro on eight cancer cell lines including human colorectal carcinoma (Caco-2 and HCT116), human cervical cancer (HeLa), human breast adenocarcinoma (MCF-7, MDA-MB-231), human alveolar adenocarcinoma (A549) and human leukemic T cell lymphoma (Jurkat), and two non-cancer cell lines (MCF-10A, Cos-7).
The cell lines used for this study were Caco-2 (human colorectal adenocarcinoma cell line, American Type Culture Collection, Manassas, VA, USA (ATCC)), HCT116 (human colorectal carcinoma cells European Collection of Authenticated Cell Cultures, Salisbury, UK (ECACC)), HeLa (human cervical tumor cells, ECACC), MCF-7 (human breast tumor cells, ECACC), MDA-MB-231 (human breast tumor cells, ATCC), A549 (human lung carcinoma cells, ATCC), BLM (human melanoma lung metastases, a gift from prof. K. Smetana, Institute of Anatomy, Charles University in Prague), Jurkat (human leukemia cell line, ECACC), Cos-7 (immortalized monkey kidney fibroblasts, ATCC) and MCF-10A (human mammary epithelial cells, ATCC). Caco-2, MCF-7, BLM, Cos-7 and A549 cells were cultured in Dulbecco’s Modified Eagle’s Medium (DMEM) with high glucose and sodium pyruvate (GE Healthcare, Piscataway, NJ, USA); HCT116 lines, HeLa, MDA-MB-231 and Jurkat were cultured in RPMI-1640 medium; and MCF10A cells were cultured in high glucose DMEM/F12 (Dulbecco’s Modified Eagle’s Medium F12). The media were enriched with 10% fetal bovine serum (FBS) and a 1% solution of a mixture of antibiotics and antimycotics 1× HyClone™ (GE Healthcare, Chicago, IL, USA). DMEM/F12 medium was supplemented with epidermal growth factor (EGF) (20 ng/mL final), hydrocortisone (0.5 μg/mL final) and insulin (10 μg/mL final) (Sigma-Aldrich Chemie, Steinheim, Germany). The cells were placed in an incubator at 37 °C with humidified air containing 5% CO2.
(§1) The MTT assay is a colorimetric method used to quantify the metabolic activity of cells. MTT (3-(4,5-di-methylthiazol-2-yl)2,5-diphenyltetrazolium bromide) (Sigma-Aldrich Chemie, Steinheim, Germany) is reduced by oxidoreductases in the cytosol of cells to light-absorbing formazan, the presence of which can be measured spectrophotometrically and determines the half-maximal inhibitory concentration (IC50). A549 cells were seeded in 95-well culture plates at a density of 5 × 10^3 per well. […]
(§2) We also incubated the cells with chloroquine at concentrations of 5–20 µM, which was added 1 h before the addition of the test substance, and cisplatin at concentrations of 3–10 µM. […] After 24 h, the absorbance was measured at a wavelength of 540 nm using an automated Cytation™ 3 Cell Imaging Multi-Mode Reader (Biotek, Winooski, VT, USA). […]

[3] = system: glutathione reductase (GR); test: GR activity in treated A549 cells; assay type: cell-based, human; conditions: A549, 20 µM
Text: Glutathione is an important intracellular molecule involved in carcinogen detoxification. On the other hand, its elevated state in cancer cells is often associated with resistance to chemotherapy. […] Because high levels of GSH are associated with cancer cell resistance, the GHS-depleting effect of compound 49 could be interesting due to new cancer chemosensitizer development. In the case of GST and GR, we hypothesize that an increase in the activity of both enzymes may be a compensatory mechanism induced by GSH depletion.
Both floating and adherent A549 cells were harvested at 24, 48, and 72 h after treatment with compound 49 (20 µM). SOD determination kit, Glutathione Peroxidase Cellular Activity Assay kit, Glutathione Reductase Assay Kit and Glutathione-S-transferase (GST) Assay Kit (all Sigma Aldrich, Germany) were used for the detection of relevant enzyme activity. Reduced glutathione (GSH) content was measured by the method originally described by Floreani et al.. Assays were performed on an M 501 single beam UV/VIS spectrophotometer (Spectronic Camspec Ltd., Leeds, United Kingdom). All measured parameters were calculated per milligram or gram of protein determined using the bicinchoninic acid assay.

[4] = system: A549 human lung cancer cells; test: MTT assay with cis-platin alone or combined with compound 49; assay type: cell-based; conditions: A549, CisPt 10 μM + compound 49 20 μM
Text: Furthermore, the depletion of GSH has been documented to potentiate the effect of anticancer drugs. Glutathione plays an important role in cisPt detoxification, so depletion of GSH is believed to potentiate the cisPt-induced DNA damage and increase the chemosensitivity of cancer cells to this anticancer drug. Due to the GSH-depleting effect of compound 49, we performed a set of experiments with cis-platin (CisPt) alone or in combination with compound 49 (Figure 9). […] Simultaneous treatments with CisPt (10 μM) and 20 μM of compound 49 caused a 59% reduction in cell growth.
as §1, with “(IC50).” for “(IC50). A549 cells were seeded in 95-well culture plates at a density of 5 × 10^3 per well.”
as §2

CC(C)(C)OC(=O)n1cc(CNC(=O)Nc2ccc(NC(=O)NCc3cn(C(=O)OC(C)(C)C)c4ccccc34)cc2)c2ccccc21 [Compound 49, N,N′-(1,4-phenylene)bis{N′-[1-(tert-butoxycarbonyl)indol-3-yl]methyl (urea)}]
IC50 [1]: > 100 µM
IC50 [2]: > 100 µM
GR ([3]; 24 h): 8.200 ± 2.97 μkat/mg Prot
GR ([3]; 48 h): 11.270 ± 1.04 μkat/mg Prot
GR ([3]; 72 h): 10.100 ± 2.89 μkat/mg Prot
reduction in cell growth, combination [4]: 59%
